Measured values as given in patent US20210330741A1, “POLYPEPTIDE THERAPEUTICS AND USES THEREOF” (BOARD OF REGENTS, THE UNIVERSITY OF TEXAS SYSTEM, priority 2015, published 2021).
Where no end group is shown, it is not given here.

Format: physicochemical
Procedure: Formulation preparation—Lyophilized cake of the CSP 7 mer was prepared using lyophilization. Five hundred μg/mL of the CSP 7 mer solution was prepared as follows: the peptide powder was dissolved in DPBS with minimal volume of ammonium hydroxide (pH 7-8) and 1.5% w/v of mannitol was added in to the solution. The solution was sterile filtered using 0.2 μm SFCA sterile syringe filter (Corning Inc., Corning, N.Y.). Effect of filtration was also tested. One milliliter of the filtrate was filled into a borosilicate glass vial and lyophilized using a VirTis Advantage Lyophilizer (VirTis Company Inc., Gardiner, N.Y.). Lyophilization cycle parameters were set as outlined in Table 2. Primary drying time was varied by number of samples. Nebulization study of the CSP 7 mer peptide—Lyophilized peptide was reconstituted with sterile water for injection (500 μg/mL). […] The condensate of each sample was collected in a polypropylene tube and kept at 5° C. until analyzed. The amount of peptide in each sample was analyzed using high performance liquid chromatography (HPLC) and the degradation products was detected using liquid chromatography mass spectroscopy (LC/MS). Chromatographic conditions—Samples were analyzed using a Dionex 3000 high performance liquid chromatography (HPLC) system (Thermo Fisher Scientific, Fair Lawn, N.J.) with a wavelength of 220 nm. […]

## FTTFTVT [CSP-7, FTTFTVT]
  percent recovery of the peptide (chemical assay, % of peptide remaining): did not have an influence
